The target of this assay is T1, human liver glycogen phosphorylase a (HLGPa) (Homo sapiens, UniProt P06737).
T1 construct: creating a full-length cDNA fused at the 5′ end to codons for methionine-glycine-alanine-histidine; 6xHis tag (leader Met-Gly-Ala-His6-Gly-Gly) (N); made in house; host or cells: E. coli (bacterial expression plasmid pTXK1007LTev)
T1 sequence (P06737 2-847 limits assumed): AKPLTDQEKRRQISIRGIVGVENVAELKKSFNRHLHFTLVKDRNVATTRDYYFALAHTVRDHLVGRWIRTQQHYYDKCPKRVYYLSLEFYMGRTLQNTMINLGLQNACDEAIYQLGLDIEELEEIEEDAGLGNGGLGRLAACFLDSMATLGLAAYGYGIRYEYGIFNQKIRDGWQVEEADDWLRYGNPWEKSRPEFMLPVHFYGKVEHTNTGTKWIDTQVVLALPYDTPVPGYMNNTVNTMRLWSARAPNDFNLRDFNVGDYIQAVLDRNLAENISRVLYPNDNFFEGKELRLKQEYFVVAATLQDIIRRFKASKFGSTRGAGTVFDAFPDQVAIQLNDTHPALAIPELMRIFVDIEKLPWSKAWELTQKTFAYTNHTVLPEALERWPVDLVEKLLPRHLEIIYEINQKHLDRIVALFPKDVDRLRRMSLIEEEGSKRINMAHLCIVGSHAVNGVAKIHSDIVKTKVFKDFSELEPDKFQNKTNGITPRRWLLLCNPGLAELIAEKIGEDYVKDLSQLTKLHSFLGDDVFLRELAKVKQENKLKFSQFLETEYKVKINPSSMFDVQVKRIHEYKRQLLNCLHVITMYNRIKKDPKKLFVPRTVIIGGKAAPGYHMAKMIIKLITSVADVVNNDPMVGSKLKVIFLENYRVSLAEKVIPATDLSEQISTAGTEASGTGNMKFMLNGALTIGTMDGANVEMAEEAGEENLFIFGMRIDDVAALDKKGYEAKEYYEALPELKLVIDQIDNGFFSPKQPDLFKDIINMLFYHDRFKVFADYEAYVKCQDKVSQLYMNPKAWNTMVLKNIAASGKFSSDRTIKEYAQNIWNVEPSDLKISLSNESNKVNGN
The assay is described as follows: Human liver glycogen phosphorylase a enzymatic activity assay (coupled, fluorescent resorufin readout, with and without 10 mM glucose). It counts as biochemical. The note with it: human liver glycogen phosphorylase a enzymatic activity assay.

As usually defined, the IC50 is the concentration that inhibits the measured activity by half.

The structures appear in SMILES notation.

In turn, `Cc1cccc(C)c1NC(=O)Nc1cc(F)c(F)cc1C(=O)N[C@@H](CC1CCCCC1)C(=O)O` [Example 118, 3-cyclohexyl-N-[2-({[(2,6-dimethylphenyl)amino]carbonyl}amino)-4,5-difluorobenzoyl]-L-alanine] had an IC50 of 15.7 µM. That is a double-digit micromolar value. In the case of `COc1cc(NC(=O)Nc2c(C)cccc2C)c(C(=O)N[C@@H](CC2CCCCC2)C(=O)O)cc1OC` [Example 119, 3-cyclohexyl-N-[2-({[(2,6-dimethylphenyl)amino]carbonyl}amino)-4,5-dimethoxybenzoyl]-L-alanine], 13.6 µM corresponded to half-maximal inhibition (IC50). Compound `CCc1cccc(CC)c1NC(=O)Nc1cc2ccccc2cc1C(=O)NC(C(=O)O)c1ccccc1` (stereo not shown) [Example 120, {[3-({[(2,6-diethylphenyl)amino]carbonyl}amino)-2-naphthoyl]amino}(phenyl)acetic acid] came in with a half-maximal inhibitory concentration (IC50) of 24.6 µM. The value for `CCc1cccc(CC)c1NC(=O)Nc1cc(Cl)ccc1C(=O)N[C@H](Cc1ccccc1F)C(=O)O` [Example 121, N-[4-chloro-2-({[(2,6-diethylphenyl)amino]carbonyl}amino)benzoyl]-2-fluoro-D-phenylalanine] was 3.44 µM.

`Cc1cccc(Cl)c1NC(=O)Nc1cc2ccccc2cc1C(=O)N[C@@H](CC1CCCCC1)C(=O)O` [Example 122, N-[3-({[(2-chloro-6-methylphenyl)amino]carbonyl}amino)-2-naphthoyl]-3-cyclohexyl-L-alanine] yielded a half-inhibitory concentration (IC50) of 2.23 µM. With `Cc1cccc(Cl)c1NC(=O)Nc1cc2ccccc2cc1C(=O)NC(C(=O)O)c1ccccc1` (stereo not shown) [Example 123] the figure was 0.27 µM; with `Cc1cccc(Cl)c1NC(=O)Nc1cc2ccccc2cc1C(=O)N[C@H](Cc1ccccc1F)C(=O)O` [Example 124, N-[3-({[(2-chloro-6-methylphenyl)amino]carbonyl}amino)-2-naphthoyl]-2-fluoro-D-phenylalanine], 5.82 µM. Compound `Cc1cccc(Cl)c1NC(=O)Nc1cc(Cl)ccc1C(=O)N[C@@H](CC1CCCCC1)C(=O)O` [Example 125, N-[4-chloro-2-({[(2-chloro-6-methylphenyl)amino]carbonyl}amino)benzoyl]-3-cyclohexyl-L-alanine] came in with a half-inhibitory concentration (IC50) of 28.6 µM.

The compound `CC[C@H](C)[C@H](NC(=O)c1c(NC(=O)Nc2c(C)cccc2C)sc2c1CCCC2)C(=O)O` [Example 126, N-{[2-({[(2,6-dimethylphenyl)amino]carbonyl}amino)-4,5,6,7-tetrahydro-1-benzothien-3-yl]carbonyl}-L-isoleucine] yielded a half-maximal inhibitory concentration (IC50) of 13.9 µM. The value for `CC[C@H](C)[C@H](NC(=O)c1c(NC(=O)Nc2c(C)cc(C)cc2C)sc2c1CCCC2)C(=O)O` [Example 127, N-[(2-{[(mesitylamino)carbonyl]amino}-4,5,6,7-tetrahydro-1-benzothien-3-yl)carbonyl]-L-isoleucine] was 18.2 µM. As for `CC[C@H](C)[C@H](NC(=O)c1c(NC(=O)Nc2c(C)cccc2Cl)sc2c1CCCC2)C(=O)O` [Example 128, N-{[2-({[(2-chloro-6-methylphenyl)amino]carbonyl}amino)-4,5,6,7-tetrahydro-1-benzothien-3-yl]carbonyl}-L-isoleucine], the IC50 is 14.8 µM. `CC[C@H](C)[C@H](NC(=O)c1c(NC(=O)Nc2c(Cl)cccc2Cl)sc2c1CCCC2)C(=O)O` [Example 129, N-{[2-({[(2,6-dichlorophenyl)amino]carbonyl}amino)-4,5,6,7-tetrahydro-1-benzothien-3-yl]carbonyl}-L-isoleucine] displayed an IC50 of 7.97 µM. `Cc1cccc(Cl)c1NC(=O)Nc1sc2c(c1C(=O)N[C@@H](CC(C)C)C(=O)O)CCCC2` [Example 130, N-{[2-({[(2-chloro-6-methylphenyl)amino]carbonyl}amino)-4,5,6,7-tetrahydro-1-benzothien-3-yl]carbonyl}-L-leucine]: it took 18 µM to reach half-maximal inhibition (IC50).

In turn, `CC(C)C[C@H](NC(=O)c1c(NC(=O)Nc2c(Cl)cccc2Cl)sc2c1CCCC2)C(=O)O` [Example 131, N-{[2-({[(2,6-dichlorophenyl)amino]carbonyl}amino)-4,5,6,7-tetrahydro-1-benzothien-3-yl]carbonyl}-L-leucine] had an IC50 of 9.96 µM. The value for `Cc1cccc(C)c1NC(=O)Nc1sc2c(c1C(=O)N[C@@H](CC(=O)O)C(=O)O)CCCC2` [Example 132, N-{[2-({[(2,6-dimethylphenyl)amino]carbonyl}amino)-4,5,6,7-tetrahydro-1-benzothien-3-yl]carbonyl}-L-aspartic acid] was 5.25 µM.

Take `Cc1cc(C)c(NC(=O)Nc2sc3c(c2C(=O)N[C@@H](CC(=O)O)C(=O)O)CCCC3)c(C)c1` [Example 133, N-[(2-{[(mesitylamino)carbonyl]amino}-4,5,6,7-tetrahydro-1-benzothien-3-yl)carbonyl]-L-aspartic acid]: the half-inhibitory concentration (IC50) was found to be 2.38 µM. With `Cc1cccc(Cl)c1NC(=O)Nc1sc2c(c1C(=O)N[C@@H](CC(=O)O)C(=O)O)CCCC2` [Example 134, N-{[2-({[(2-chloro-6-methylphenyl)amino]carbonyl}amino)-4,5,6,7-tetrahydro-1-benzothien-3-yl]carbonyl}-L-aspartic acid] the figure was 3.66 µM; with `Cc1cccc(C(C)C)c1NC(=O)Nc1sc2c(c1C(=O)N[C@@H](CC(=O)O)C(=O)O)CCCC2` [Example 135, N-{[2-({[(2-isopropyl-6-methylphenyl)amino]carbonyl}amino)-4,5,6,7-tetrahydro-1-benzothien-3-yl]carbonyl}-L-aspartic acid], 17.9 µM; with `CCc1cccc(CC)c1NC(=O)Nc1sc2c(c1C(=O)N[C@@H](CC(=O)O)C(=O)O)CCCC2` [Example 136, N-{[2-({[(2,6-diethylphenyl)amino]carbonyl}amino)-4,5,6,7-tetrahydro-1-benzothien-3-yl]carbonyl}-L-aspartic acid], 4.58 µM.

For `O=C(O)C[C@H](NC(=O)c1c(NC(=O)Nc2c(Cl)cccc2Cl)sc2c1CCCC2)C(=O)O` [Example 137, N-{[2-({[(2,6-dichlorophenyl)amino]carbonyl}amino)-4,5,6,7-tetrahydro-1-benzothien-3-yl]carbonyl}-L-aspartic acid], the IC50 was found to be 4.15 µM. `Cc1cccc(C)c1NC(=O)Nc1sc2c(c1C(=O)N[C@H](C(=O)O)C1CCCCC1)CCCC2` [Example 138, (2S)-cyclohexyl({[2-({[(2,6-dimethylphenyl)amino]carbonyl}amino)-4,5,6,7-tetrahydro-1-benzothien-3-yl]carbonyl}amino)acetic acid] had an IC50 of 5.56 µM. The IC50 values of the last two compounds are within 1.5-fold of each other. As for `Cc1cccc(Cl)c1NC(=O)Nc1sc2c(c1C(=O)N[C@H](C(=O)O)C1CCCCC1)CCCC2` [Example 139, (2S)-({[2-({[(2-chloro-6-methylphenyl)amino]carbonyl}amino)-4,5,6,7-tetrahydro-1-benzothien-3-yl]carbonyl}amino)(cyclohexyl)acetic acid], the IC50 came out at 3.26 µM. The value for `O=C(Nc1sc2c(c1C(=O)N[C@H](C(=O)O)C1CCCCC1)CCCC2)Nc1c(Cl)cccc1Cl` [Example 140, (2S)-cyclohexyl({[2-({[(2,6-dichlorophenyl)amino]carbonyl}amino)-4,5,6,7-tetrahydro-1-benzothien-3-yl]carbonyl}amino)acetic acid] was 5.5 µM; that for `Cc1ccccc1NC(=O)Nc1sc2ccccc2c1C(=O)N[C@H](C(=O)O)C1CCCCC1` [Example 141, (2S)-cyclohexyl({[2-({[(2-methylphenyl)amino]carbonyl}amino)-1-benzothien-3-yl]carbonyl}amino)acetic acid] was 8.71 µM. Compound `Cc1cccc(Cl)c1NC(=O)Nc1sc2ccccc2c1C(=O)N[C@H](C(=O)O)C1CCCCC1` [Example 142, (2S)-({[2-({[(2-chloro-6-methylphenyl)amino]carbonyl}amino)-1-benzothien-3-yl]carbonyl}amino)(cyclohexyl)acetic acid] had an IC50 of 1.51 µM. This IC50 is about 5.8-fold lower than that of the compound before.

`Cc1ccccc1NC(=O)Nc1cc2ccccc2cc1C(=O)N[C@H](C(=O)O)C1CCCCC1` [Example 143, (2S)-cyclohexyl{[3-({[(2-methylphenyl)amino]carbonyl}amino)-2-naphthoyl]amino}acetic acid] displayed a half-maximal inhibitory concentration (IC50) of 30.3 µM.

For the compound `Cc1ccccc1NC(=O)Nc1cc2ccccc2cc1C(=O)N[C@@H](CC1CCCCC1)C(=O)O` [Example 144, 3-cyclohexyl-N-{[3-({[(2-methylphenyl)amino]carbonyl}amino)-2-naphthalenyl]carbonyl}-L-alanine], the IC50 was found to be 16.8 µM. With `Cc1cccc(C)c1NC(=O)Nc1cc2ccccc2cc1C(=O)N[C@@H](CC1CCCCC1)C(=O)O` [Example 145, 3-cyclohexyl-N-{[3-({[(2,6-dimethylphenyl)amino]carbonyl}amino)-2-naphthalenyl]carbonyl}-L-alanine] the figure was 0.59 µM.

For the origin of these results see US20070249670A1, “Glycogen Phosphorylase Inhibitor Compounds and Pharmaceutical Compositions Thereof” (SMITHKLINE BEECHAM CORPORATION, priority 2004, published 2007).
